From patent US20230391768A2, “IMIDAZOPYRIDINE DERIVATIVES AND AZA-IMIDAZOPYRIDINE DERIVATIVES AS JANUS KINASE 2 INHIBITORS AND USES THEREOF” (Dana-Farber Cancer Institute, Inc., priority 2018, published 2023)

Legend:
Assay in all cases: KINOMEscan
Format in all cases: binding
Conditions in all cases: read-out: percent of control
[1] = molecular target: RPS6KA4 (Kin.Dom.1-N-terminal) (Homo sapiens (Human), UniProt O75676)
Method: (§1) In vitro profiling of Compound I-2 (1 μM) was performed using the DiscoveRx KINOMEscan® platform.

GAK = GAK (Homo sapiens (Human), UniProt O14976)
Method: as §1

PLK3 = PLK3 (Homo sapiens (Human), UniProt Q9H4B4)
Method: as §1

TIE2 = TIE2 (Homo sapiens (Human), UniProt Q02763)
Sequence of TIE2 (Q02763 23-1124): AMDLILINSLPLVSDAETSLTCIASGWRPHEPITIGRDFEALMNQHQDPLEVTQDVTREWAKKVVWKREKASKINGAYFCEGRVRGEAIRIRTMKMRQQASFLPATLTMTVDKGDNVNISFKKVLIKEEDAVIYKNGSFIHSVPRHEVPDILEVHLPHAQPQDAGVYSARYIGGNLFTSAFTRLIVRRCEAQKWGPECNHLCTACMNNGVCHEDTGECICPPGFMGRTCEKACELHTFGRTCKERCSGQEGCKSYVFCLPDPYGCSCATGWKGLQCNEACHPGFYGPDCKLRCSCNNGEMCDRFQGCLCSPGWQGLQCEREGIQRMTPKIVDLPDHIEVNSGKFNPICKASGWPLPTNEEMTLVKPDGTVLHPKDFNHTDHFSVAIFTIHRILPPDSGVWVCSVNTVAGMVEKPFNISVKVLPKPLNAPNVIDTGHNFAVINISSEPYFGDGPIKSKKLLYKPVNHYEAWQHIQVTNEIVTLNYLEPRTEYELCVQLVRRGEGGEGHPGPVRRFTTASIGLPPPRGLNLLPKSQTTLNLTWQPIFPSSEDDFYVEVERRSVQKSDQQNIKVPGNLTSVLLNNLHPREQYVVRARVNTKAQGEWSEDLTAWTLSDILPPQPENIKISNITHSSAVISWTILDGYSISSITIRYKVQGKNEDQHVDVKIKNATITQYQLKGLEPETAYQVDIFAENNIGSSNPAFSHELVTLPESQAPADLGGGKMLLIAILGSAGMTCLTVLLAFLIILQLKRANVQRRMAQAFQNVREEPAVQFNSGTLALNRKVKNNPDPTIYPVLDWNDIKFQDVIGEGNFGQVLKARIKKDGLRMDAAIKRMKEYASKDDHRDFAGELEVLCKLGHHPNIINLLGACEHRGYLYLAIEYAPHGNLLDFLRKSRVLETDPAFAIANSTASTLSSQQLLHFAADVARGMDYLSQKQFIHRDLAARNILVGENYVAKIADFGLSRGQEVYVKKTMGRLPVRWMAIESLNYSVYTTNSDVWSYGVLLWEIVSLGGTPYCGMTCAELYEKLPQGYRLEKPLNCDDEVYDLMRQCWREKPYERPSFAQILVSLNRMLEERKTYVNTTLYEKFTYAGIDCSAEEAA
Method: as §1

CDC2L2 = CDC2L2 (Homo sapiens (Human), UniProt Q9UQ88)
Method: as §1

KIT-autoinhibited = KIT-autoinhibited (Homo sapiens (Human), UniProt P10721)
Method: as §1

PIK3CG = PIK3CG (Homo sapiens (Human), UniProt P48736)
Method: as §1

SNRK = SNRK (Homo sapiens (Human), UniProt Q9NRH2)
Method: as §1

BMPR1A = BMPR1A (Homo sapiens (Human), UniProt P36894)
Method: as §1

MYLK2 = MYLK2 (Homo sapiens (Human), UniProt Q9H1R3)
Method: as §1

EPHA2 = EPHA2 (Homo sapiens (Human), UniProt P29317)
Method: as §1

DLK = DLK (Homo sapiens (Human), UniProt Q12852)
Method: as §1

PDPK1 = PDPK1 (Homo sapiens (Human), UniProt O15530)
Sequence of PDPK1 (O15530 whole entry): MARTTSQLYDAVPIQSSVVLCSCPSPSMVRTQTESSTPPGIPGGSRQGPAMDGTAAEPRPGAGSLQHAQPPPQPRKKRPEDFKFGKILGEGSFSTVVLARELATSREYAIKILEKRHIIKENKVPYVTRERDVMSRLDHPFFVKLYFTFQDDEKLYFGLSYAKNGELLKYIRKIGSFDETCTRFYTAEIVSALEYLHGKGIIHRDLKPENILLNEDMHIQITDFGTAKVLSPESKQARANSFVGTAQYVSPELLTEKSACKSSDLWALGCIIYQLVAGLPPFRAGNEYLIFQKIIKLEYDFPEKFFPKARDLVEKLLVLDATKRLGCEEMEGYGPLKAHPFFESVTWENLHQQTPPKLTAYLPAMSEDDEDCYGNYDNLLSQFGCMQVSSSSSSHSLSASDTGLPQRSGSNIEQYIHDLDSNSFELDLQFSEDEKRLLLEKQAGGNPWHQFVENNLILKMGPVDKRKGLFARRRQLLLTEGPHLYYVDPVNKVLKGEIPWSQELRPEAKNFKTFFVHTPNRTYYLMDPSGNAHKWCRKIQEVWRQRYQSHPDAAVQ
Method: as §1

CAMK1 = CAMK1 (Homo sapiens (Human), UniProt Q14012)
Method: as §1

TNK1 = TNK1 (Homo sapiens (Human), UniProt Q13470)
Method: as §1

NIK = NIK (Homo sapiens (Human), UniProt Q99558)
Method: as §1

SLK = SLK (Homo sapiens (Human), UniProt Q9H2G2)
Method: as §1

PIP5K1A = PIP5K1A (Homo sapiens (Human), UniProt Q99755)
Sequence of PIP5K1A (Q99755 whole entry): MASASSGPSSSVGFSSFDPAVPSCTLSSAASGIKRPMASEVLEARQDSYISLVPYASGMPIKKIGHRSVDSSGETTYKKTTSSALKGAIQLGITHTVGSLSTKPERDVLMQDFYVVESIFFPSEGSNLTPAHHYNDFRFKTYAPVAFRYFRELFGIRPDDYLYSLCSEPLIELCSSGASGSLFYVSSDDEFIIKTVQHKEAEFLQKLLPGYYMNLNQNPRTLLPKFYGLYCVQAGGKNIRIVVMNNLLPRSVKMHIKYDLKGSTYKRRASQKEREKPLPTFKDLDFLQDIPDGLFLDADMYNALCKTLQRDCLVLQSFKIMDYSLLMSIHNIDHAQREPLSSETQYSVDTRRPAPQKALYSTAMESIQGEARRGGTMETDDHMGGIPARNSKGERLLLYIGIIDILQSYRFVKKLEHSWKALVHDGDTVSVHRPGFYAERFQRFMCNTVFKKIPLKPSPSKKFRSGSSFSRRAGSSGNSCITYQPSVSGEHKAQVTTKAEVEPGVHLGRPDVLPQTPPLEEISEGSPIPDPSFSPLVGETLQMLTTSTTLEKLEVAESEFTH
Method: as §1

GRK2 = GRK2 (Homo sapiens (Human), UniProt P25098)
Method: as §1

BRAF(V600E) = BRAF(V600E) (Homo sapiens (Human), UniProt P15056, V600E)
Sequence of BRAF(V600E) (P15056 whole entry V600E): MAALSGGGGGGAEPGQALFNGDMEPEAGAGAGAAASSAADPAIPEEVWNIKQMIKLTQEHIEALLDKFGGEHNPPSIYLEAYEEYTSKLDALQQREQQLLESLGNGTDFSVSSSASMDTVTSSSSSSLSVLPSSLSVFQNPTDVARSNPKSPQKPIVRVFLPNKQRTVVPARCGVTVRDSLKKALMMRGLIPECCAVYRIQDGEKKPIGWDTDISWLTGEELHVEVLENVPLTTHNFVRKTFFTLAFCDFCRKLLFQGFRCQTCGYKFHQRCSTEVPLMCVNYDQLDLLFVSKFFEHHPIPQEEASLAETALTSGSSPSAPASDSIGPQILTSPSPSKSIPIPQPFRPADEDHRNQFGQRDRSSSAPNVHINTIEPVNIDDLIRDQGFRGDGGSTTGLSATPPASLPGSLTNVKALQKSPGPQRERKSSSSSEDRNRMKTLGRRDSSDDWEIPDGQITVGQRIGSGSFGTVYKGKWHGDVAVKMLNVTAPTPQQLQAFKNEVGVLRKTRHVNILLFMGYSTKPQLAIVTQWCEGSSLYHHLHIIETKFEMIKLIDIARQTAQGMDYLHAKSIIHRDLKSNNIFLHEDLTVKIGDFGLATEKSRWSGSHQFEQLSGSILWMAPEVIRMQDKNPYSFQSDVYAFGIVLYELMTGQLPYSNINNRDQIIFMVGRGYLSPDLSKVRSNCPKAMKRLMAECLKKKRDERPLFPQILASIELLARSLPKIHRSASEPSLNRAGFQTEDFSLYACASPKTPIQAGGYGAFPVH
Method: as §1

PIK4CB = PIK4CB (Homo sapiens (Human), UniProt Q9UBF8)
Method: as §1

ROCK1 = ROCK1 (Homo sapiens (Human), UniProt Q13464)
Method: as §1

WNK3 = WNK3 (Homo sapiens (Human), UniProt Q9BYP7)
Method: as §1

MEK3 = MEK3 (Homo sapiens (Human), UniProt P46734)
Method: as §1

FGFR3 (G697C) = FGFR3 (G697C) (Homo sapiens (Human), UniProt P22607, G697C)
Sequence of FGFR3 (G697C) (P22607 23-806 G697C): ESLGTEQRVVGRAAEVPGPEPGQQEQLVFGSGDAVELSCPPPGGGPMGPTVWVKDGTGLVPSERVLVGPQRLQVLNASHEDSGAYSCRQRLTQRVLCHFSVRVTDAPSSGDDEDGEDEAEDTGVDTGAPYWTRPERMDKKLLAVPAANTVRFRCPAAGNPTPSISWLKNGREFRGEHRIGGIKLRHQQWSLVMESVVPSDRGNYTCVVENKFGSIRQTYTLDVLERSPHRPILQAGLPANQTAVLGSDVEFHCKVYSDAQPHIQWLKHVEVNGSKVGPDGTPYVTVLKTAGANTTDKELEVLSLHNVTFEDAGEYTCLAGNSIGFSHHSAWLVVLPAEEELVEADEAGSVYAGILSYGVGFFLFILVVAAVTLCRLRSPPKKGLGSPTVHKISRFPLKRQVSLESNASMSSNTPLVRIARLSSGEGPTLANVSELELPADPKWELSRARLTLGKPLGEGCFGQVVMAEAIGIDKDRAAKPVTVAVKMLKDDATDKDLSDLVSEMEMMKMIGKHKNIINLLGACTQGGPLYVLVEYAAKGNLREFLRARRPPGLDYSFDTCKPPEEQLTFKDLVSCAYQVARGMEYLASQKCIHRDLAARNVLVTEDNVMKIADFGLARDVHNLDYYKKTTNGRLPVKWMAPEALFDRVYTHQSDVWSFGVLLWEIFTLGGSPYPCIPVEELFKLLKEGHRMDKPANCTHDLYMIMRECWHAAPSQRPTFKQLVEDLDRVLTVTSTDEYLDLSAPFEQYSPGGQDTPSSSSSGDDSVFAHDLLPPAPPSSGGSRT
Method: as §1

FLT3 (D835H) = FLT3 (D835H) (Homo sapiens (Human), UniProt P36888, D835H)
Method: as §1

CDK8 = CDK8 (Homo sapiens (Human), UniProt P49336)
Sequence of CDK8 (P49336 whole entry): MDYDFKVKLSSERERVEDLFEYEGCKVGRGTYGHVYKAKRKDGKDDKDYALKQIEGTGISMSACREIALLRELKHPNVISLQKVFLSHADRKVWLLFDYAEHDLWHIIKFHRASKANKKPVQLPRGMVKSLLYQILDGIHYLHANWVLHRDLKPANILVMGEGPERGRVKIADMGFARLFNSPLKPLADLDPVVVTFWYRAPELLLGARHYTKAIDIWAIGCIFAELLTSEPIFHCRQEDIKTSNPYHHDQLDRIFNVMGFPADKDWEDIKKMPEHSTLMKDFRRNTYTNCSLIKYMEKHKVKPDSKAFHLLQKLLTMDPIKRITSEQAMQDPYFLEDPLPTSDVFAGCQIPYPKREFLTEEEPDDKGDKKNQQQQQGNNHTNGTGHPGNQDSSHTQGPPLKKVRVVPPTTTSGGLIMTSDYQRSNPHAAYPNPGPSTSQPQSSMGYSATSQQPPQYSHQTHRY
Method: as §1

PIK3C2B = PIK3C2B (Homo sapiens (Human), UniProt O00750)
Method: as §1

PRKD1 = PRKD1 (Homo sapiens (Human), UniProt Q15139)
Method: as §1

MKNK2 = MKNK2 (Homo sapiens (Human), UniProt Q9HBH9)
Method: as §1

DRAK2 = DRAK2 (Homo sapiens (Human), UniProt O94768)
Method: as §1

RET = RET (Homo sapiens (Human), UniProt P07949)
Method: as §1

TTK = TTK (Homo sapiens (Human), UniProt P33981)
Method: as §1

CAMKK1 = CAMKK1 (Homo sapiens (Human), UniProt Q8N5S9)
Method: as §1

LCK = LCK (Homo sapiens (Human), UniProt P06239)
Method: as §1

[2] = molecular target: ABL1(Y253F)-phosphorylated (Homo sapiens (Human), UniProt P00519, Y253F)
Method: as §1

LATS2 = LATS2 (Homo sapiens (Human), UniProt Q9NRM7)
Method: as §1

HPK1 = HPK1 (Homo sapiens (Human), UniProt Q92918)
Sequence of HPK1 (Q92918 whole entry): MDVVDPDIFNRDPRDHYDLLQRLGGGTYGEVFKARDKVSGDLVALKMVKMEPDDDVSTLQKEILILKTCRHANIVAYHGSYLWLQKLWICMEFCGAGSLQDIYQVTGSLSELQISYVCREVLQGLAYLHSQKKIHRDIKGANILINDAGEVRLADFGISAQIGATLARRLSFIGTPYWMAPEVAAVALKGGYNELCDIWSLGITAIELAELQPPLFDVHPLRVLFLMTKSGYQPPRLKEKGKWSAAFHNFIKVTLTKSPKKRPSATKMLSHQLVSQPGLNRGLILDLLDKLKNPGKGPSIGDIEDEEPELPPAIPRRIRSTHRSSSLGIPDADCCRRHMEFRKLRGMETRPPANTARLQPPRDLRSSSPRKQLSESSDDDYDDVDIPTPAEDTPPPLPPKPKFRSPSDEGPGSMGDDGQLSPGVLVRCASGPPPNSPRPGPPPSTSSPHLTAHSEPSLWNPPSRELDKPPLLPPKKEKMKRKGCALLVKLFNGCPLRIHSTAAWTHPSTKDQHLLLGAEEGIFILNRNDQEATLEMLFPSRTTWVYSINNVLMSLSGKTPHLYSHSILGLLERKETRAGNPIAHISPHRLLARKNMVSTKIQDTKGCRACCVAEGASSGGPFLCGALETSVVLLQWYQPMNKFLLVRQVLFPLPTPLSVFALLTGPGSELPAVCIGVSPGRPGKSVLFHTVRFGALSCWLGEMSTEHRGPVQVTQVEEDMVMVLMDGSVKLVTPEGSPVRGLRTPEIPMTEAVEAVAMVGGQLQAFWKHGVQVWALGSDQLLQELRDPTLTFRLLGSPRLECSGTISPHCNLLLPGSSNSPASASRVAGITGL
Method: as §1

DAPK2 = DAPK2 (Homo sapiens (Human), UniProt Q9UIK4)
Method: as §1

| Compound | remaining binding at 1 µM [1] | remaining binding at 1 µM (GAK) | remaining binding at 1 µM (PLK3) | remaining binding at 1 µM (TIE2) | remaining binding at 1 µM (CDC2L2) | remaining binding at 1 µM (KIT-autoinhibited) | remaining binding at 1 µM (PIK3CG) | remaining binding at 1 µM (SNRK) | remaining binding at 1 µM (BMPR1A) | remaining binding at 1 µM (MYLK2) | remaining binding at 1 µM (EPHA2) | remaining binding at 1 µM (DLK) | remaining binding at 1 µM (PDPK1) | remaining binding at 1 µM (CAMK1) | remaining binding at 1 µM (TNK1) | remaining binding at 1 µM (NIK) | remaining binding at 1 µM (SLK) | remaining binding at 1 µM (PIP5K1A) | remaining binding at 1 µM (GRK2) | remaining binding at 1 µM (BRAF(V600E)) | further results |
| --- | --- | --- | --- | --- | --- | --- | --- | --- | --- | --- | --- | --- | --- | --- | --- | --- | --- | --- | --- | --- | --- |
| CCN1CCN(Cc2cc(NC(=O)c3ccc(C)c(-c4ccc5nc(NC(=O)C6CC6)cn5n4)c3)cc(C(F)(F)F)c2)CC1 [Compound I-2, 3-(2-(cyclopropanecarboxamido)imidazo[1,2-b]pyridazin-6-yl)-N-(3-((4-ethylpiperazin-1-yl)methyl)-5-(trifluoromethyl)phenyl)-4-methylbenzamide] | 50% | 99% | 100% | 0.1% | 27% | 79% | 99% | 84% | 99% | 92% | 1.8% | 15% | 89% | 92% | 63% | 100% | 1.6% | 100% | 94% | 1.7% | remaining binding at 1 µM (PIK4CB): 97%; remaining binding at 1 µM (ROCK1): 86%; remaining binding at 1 µM (WNK3): 92%; remaining binding at 1 µM (MEK3): 71%; remaining binding at 1 µM (FGFR3 (G697C)): 87%; remaining binding at 1 µM (FLT3 (D835H)): 2.2%; remaining binding at 1 µM (CDK8): 4.8%; remaining binding at 1 µM (PIK3C2B): 100%; remaining binding at 1 µM (PRKD1): 93%; remaining binding at 1 µM (MKNK2): 87%; remaining binding at 1 µM (DRAK2): 89%; remaining binding at 1 µM (RET): 0%; remaining binding at 1 µM (TTK): 83%; remaining binding at 1 µM (CAMKK1): 12%; remaining binding at 1 µM (LCK): 0%; remaining binding at 1 µM [2]: 0%; remaining binding at 1 µM (LATS2): 79%; remaining binding at 1 µM (HPK1): 0.1%; remaining binding at 1 µM (DAPK2): 94% |
| CCN1CCN(Cc2cc(NC(=O)c3ccc(C)c(-c4ccc5nc(NC(=O)C6CC6)cn5c4)c3)cc(C(F)(F)F)c2)CC1 [Compound I-6, 3-(2-(cyclopropanecarboxamido)imidazo[1,2-a]pyridin-6-yl)-N-(3-((4-ethylpiperazin-1-yl)methyl)-5-(trifluoromethyl)phenyl)-4-methylbenzamide] | 66% | 93% | 100% | 0.25% | 34% | 85% | 92% | 99% | 92% | 83% | 0.15% | 26% | 83% | 95% | 31% | 72% | 2.4% | 100% | 63% | 5.9% | remaining binding at 1 µM (PIK4CB): 96%; remaining binding at 1 µM (ROCK1): 100%; remaining binding at 1 µM (WNK3): 83%; remaining binding at 1 µM (MEK3): 87%; remaining binding at 1 µM (FGFR3 (G697C)): 69%; remaining binding at 1 µM (FLT3 (D835H)): 2%; remaining binding at 1 µM (CDK8): 3%; remaining binding at 1 µM (PIK3C2B): 100%; remaining binding at 1 µM (PRKD1): 87%; remaining binding at 1 µM (MKNK2): 82%; remaining binding at 1 µM (DRAK2): 98%; remaining binding at 1 µM (RET): 0%; remaining binding at 1 µM (TTK): 83%; remaining binding at 1 µM (CAMKK1): 53%; remaining binding at 1 µM (LCK): 0.1%; remaining binding at 1 µM [2]: 0.1%; remaining binding at 1 µM (LATS2): 85%; remaining binding at 1 µM (HPK1): 0.75%; remaining binding at 1 µM (DAPK2): 100% |
